The record followed here is US20240424010A1, “NICOTINAMIDE RIBOSIDE TRIOLEATES CHLORIDE, COMPOSITIONS CONTAINING THIS COMPOUND, AND METHODS OF MAKING AND USING THIS COMPOUND” (SOCIETE DES PRODUITS NESTLE S.A., priority 2021, published 2024).

Data set [1] in a line: Solubility of NRTOCl in water and in canola, corn and MCT oil. Format: physicochemical. The method, then:
2154 mg of canola oil was added to a 15 mL falcon tube containing 380 mg of NRTOCl. Then, the tube was placed in a water bath and was shaken at around 35° C. until NRTOCl was completely dissolved in canola oil. After dissolving NRTOCl in canola oil, the sample was kept at room temperature for the next studies. […] Although NRTOCl is a quaternary ammonium salt, it was not dissolved in water due to the existence of three groups of oleate fatty ester in its structure. Therefore, for the stability study of NRTOCl, this compound was dispersed in DI water using 1% ethanol as a cosolvent. For this purpose, 15 mg of NRTOCl was dissolved in 0.15 ml of ethanol (1%) and then 14.85 ml of DI water was added to the mixture and gently shaken. […] Although the average size of NRTOCl in this sample was 192 nm, the images of TEM disclosed smaller particles with around 50 nm and oval and spherical shapes with aspect ratio close to unity (FIGS. 10A-10C). In the nanoparticles, the NRTOCl structures are stacked on top of each other layer-by-layer. The highly positive charge of NRTO makes the nanoparticles stable in the aqueous phase.

Data set [2] can be described thus: Stability of NRTOCl and NRCl in DI water at 35° C. for 28 days (released nicotinamide by HPLC). Format: physicochemical. As for the experimental part: Although NRTOCl is a quaternary ammonium salt, it was not dissolved in water due to the existence of three groups of oleate fatty ester in its structure. Therefore, for the stability study of NRTOCl, this compound was dispersed in DI water using 1% ethanol as a cosolvent. For this purpose, 15 mg of NRTOCl was dissolved in 0.15 ml of ethanol (1%) and then 14.85 ml of DI water was added to the mixture and gently shaken. […] Although the average size of NRTOCl in this sample was 192 nm, the images of TEM disclosed smaller particles with around 50 nm and oval and spherical shapes with aspect ratio close to unity (FIGS. 10A-10C). In the nanoparticles, the NRTOCl structures are stacked on top of each other layer-by-layer. The highly positive charge of NRTO makes the nanoparticles stable in the aqueous phase. After dispersion of NRTOCl in DI water, NRCl was dissolved in DI water, and the stability of these samples were studied at 35° C. for 28 days (FIG. 11). The concentration of each sample was 1000 ppm. As during the hydrolysis reaction of NRTO and NR, both of these compounds released nicotinamide (FIG. 12), and by measuring the released amount of nicotinamide in each sample with HPLC, the remaining amounts of NRTO and NR in each sample were calculated. During this study, any release of NR from NRTO sample was not detected. It signifies that the heavy ester groups in NRTO sample are not hydrolyzed during the time of stability study. Because this study was performed in DI water and the conditions were mild, the NRTO was hydrolyzed from its N-glycoside bond.

A further data set deals with porcine pancreatin. As for the experimental part:
In vitro digestion of NRTOCl in pure form and dissolved in MCT oil was investigated in the following procedures.
The buffer for simulated intestinal phase was prepared according to the following protocol.^29 Specifically, 60 mg of NRTOCl was dissolved in 0.3 mL ethanol and added to 10 g of a buffer solution containing 400 mg bile bovine. 0.75 mL of a CaCl2 solution (0.3 M) was added to this mixture, and the pH was adjusted around 7 by using HCl (1 M). Then, 400 mg of fresh porcine pancreatin was dispersed in 4 mL of buffer solution and added to the mixture. The sample was placed in an incubator (250 rpm) at 37°° C. for 30 minutes. Subsequently, the sample was taken out of the incubator to adjust the pH to around 7 and returned to the incubator for another 30 minutes. The incubation steps and adjusting pH were repeated every 30 minutes until 2 hours were over. For quenching the enzyme, the sample was placed in an ice bath, and then 1.5 mL of the sample was centrifuged at 14,000 rpm for 10 minutes. Finally, the aqueous phase was separated and filtered by a 0.22 μm filter for determination of released NR and nicotinamide.
60 mg of NRTOCl was dissolved in 150 mg of MCT oil to prepare 29% w/w NRTO in MCT oil. Aqueous phase was 10 g of the buffer solution containing 400 mg bile bovine. The oil phase was added to the aqueous phase and homogenized at […] for 150 seconds at room temperature. 0.75 mL of a CaCl2 solution (0.3 M) was added to this mixture, and the pH was adjusted around 7 by using HCl (1 M). Then, 400 mg of fresh porcine pancreatin was dispersed in 5 mL of buffer solution and added to the mixture. The sample was placed in an incubator (250 rpm) at 37° C. for 30 minutes. Then, the sample was taken out of the incubator to adjust the pH to around 7 (by NaOH 1 M) and returned to the incubator for another 30 minutes. The incubating and adjusting pH steps were repeated every 30 minutes until 2 hours were over. For quenching the enzyme, the sample was placed in an ice bath and then 1.5 mL of the sample was centrifuged at 14000 rpm for 10 min. Finally, the aqueous phase was separated and filtered by a 0.22 μm filter for determination of released NR and nicotinamide.
After the NRTOCl stability study in different conditions, the digestibility of this compound to produce NR in simulated intestinal fluid was studied. This enzymatic digestion used porcine pancreatin, bile bovine, and a buffer solution at pH around 7.^29 The lipase enzyme in porcine pancreatin can hydrolyze the fatty ester groups to produce NR, NRDO (nicotinamide riboside dioleates), NRMO (nicotinamide riboside monoleate) and oleic acid as the main products of digestion (FIG. 16). Moreover, nicotinamide (NAM) and ribose-trioleates (RTO) can be formed as the products of hydrolysis of NRTO not digestion. By considering this hypothesis, the NRTO digestion was studied in simulated intestinal phase.
At first, the digestion study was followed by dissolving pure NRTOCl (60 mg) in 0.3 mL of ethanol, and then this solution was added to 10 mL of buffer solution containing 400 mg of bile bovine to disperse NRTO in bile bovine solution. After that, 0.75 mL of CaCl2 solution (0.3M) was added to this mixture, and the pH was adjusted to 7.0 by adding HCl (1 M). […] The released NR and nicotinamide from the sample was measured by LC-MS and HPLC analyses.

“Also recorded” adds a separate entry of the source.

For the compound `CCCCCCCC/C=C\CCCCCCCC(=O)OC[C@H]1O[C@@H]([n+]2cccc(C(N)=O)c2)[C@H](OC(=O)CCCCCCC/C=C\CCCCCCCC)[C@@H]1OC(=O)CCCCCCC/C=C\CCCCCCCC.[Cl-]` [NRTOCl, nicotinamide riboside trioleates chloride], the “appearance of 15 wt. % solution in canola oil during storage” value in data set [1] (15 wt. % NRTOCl in canola oil, room temperature) was “stable and clear without any sediment”. In addition, the “solubility in canola oil” value in data set [1] (canola oil) is given as “easily dissolved”. In data set [1] (room temperature), the “solubility in canola, corn and MCT oil” value was “easily dissolved”. Further, the solubility in water result in data set [1] (water) was “not soluble in water; also recorded: not dissolved; also recorded: water insoluble”. Besides, the “release of NR from NRTO sample (ester hydrolysis) during stability study” value in data set [2] (DI water) was “not detected”. Besides, the “remaining amount after 28 days” value in data set [2] (DI water, 1000 ppm, 28 days) turned out to be 53.3%. Further, in data set [2] (28 days), the “times more stable than NRCl in water” value was 88 times. The “times more stable than NRCl in water” value in data set [2] (28 days, listed as NRTO) is on record as “more than 88 times”. Also, in the data set with porcine pancreatin, the NRTO completely digested entry was “at least 27.5%”, the “digestibility to release NR” value is given as “digestible”, the “nicotinamide detected (N-glycosidic bond hydrolysis) during digestion” value was 3.9% and the “nicotinamide measured (N-glycosidic bond hydrolysis) during digestion” value is 2.4%. The “ribose-trioleates formed during digestion” value in the data set with porcine pancreatin worked out at 2.4%.
